Patent US6723750B2, “Photodynamic therapy for pre-melanomas” (Allergan, Inc., priority 2002, dated 2004)

Tested on: pre-melanoma
Assay: Photodynamic therapy of pre-melanoma around the excision site after surgical melanoma removal (patient case examples)
Format: in vivo, human
Procedure: The melanoma is surgically removed and the patient is treated for pre-melanoma using photodynamic therapy. The area around the point of excision of the melanoma is contacted with a composition which includes aminolevulinic acid methyl ester at about a 10% (w/w) and a penetrating agent, DMSO, at a concentration of about 10% (w/w). The composition is applied directly to and around the site of excision of the melanoma covering an area of approximately 100 cm^2. The application is repeated once an hour for an 8 hour period. The area is then exposed to light in the wavelength range of about 500 to about 700 nm for approximately 10 hours.
The melanoma is surgically removed and the patient is treated for pre-melanoma using photodynamic therapy. The area around the point of excision of the melanoma is contacted with an ointment which includes amino levulinic acid methyl ester at about 5% (w/w) and a penetrating agent, DMSO, at a concentration of about 15% (w/w). The ointment is applied directly to and around the site of excision of the melanoma. The site of application is covered with a semi-permeable membrane for 24 hours after which the application is repeated and again covered for a 24 hour period. The area is then exposed to light in the wavelength range of about 610 nm to about 670 nm for approximately 2 hours once a day for four straight days. […]

COC(=O)CCC(=O)CN [aminolevulinic acid methyl ester]
cancer status of patient after treatment (Example 3: thigh, superficial spreading melanoma removed, about 10% (w/w) with DMSO about 10% (w/w), topical, once an hour for 8 hours, light about 500 to about 700 nm approx. 10 hours, at one year after treatment): no sign of cancer | cancer status of patient after surgery and treatment (Example 6: foot, acral lentiginous melanoma removed, ointment about 5% (w/w) with DMSO about 15% (w/w), two 24 hour applications, light about 610 nm to about 670 nm approx. 2 hours once a day for four days, two years after surgery): no sign of the cancer
